Experiment in all cases: DTP human tumour cell line panel, 48 h
The subject of experiment [1] is SNB-19 CNS.
Experiment [2] deals with HCT-15 colon.
Experiment [3] deals with PC-3 prostate.
The test system of experiment [4] is OVCAR-4 ovarian.
Experiment [5] has as its system RPMI-8226 leukemia.
For experiment [6], the system named is IGROV1 ovarian.
The subject of experiment [7] is COLO 205 colon.
In experiment [8] the test system is HCT-116 colon.
In experiment [9] the test system is UACC-62 melanoma.
For experiment [10], the system named is SNB-75 CNS.

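Values below derive from 48-hour exposures of cells grown in 96-well plates, with endpoints linearly interpolated between the two concentrations bracketing the appropriate inhibition level. The concentration for 50% growth inhibition is given as GI50. TGI denotes the concentration required for complete inhibition of growth.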 Bounds are passed on as bounds.

A word on the GI50: it is the concentration at which growth is held to half of that of the control. As usually defined, the TGI is the concentration at which net growth stops. High values mean lower sensitivity of the cells, low ones greater sensitivity of the cells.

With `CCCC[P+](c1ccccc1)(c1ccccc1)c1ccccc1`, the GI50 is 3.6 µM in experiment [1]; > 100 µM in [2]; 1.16 µM in experiment [3]; 2.43 µM in experiment [4]; 0.193 µM in experiment [5]; 11.4 µM in [6]. Besides, the GI50 in experiment [7] is 1.24 µM; in experiment [8], 2.87 µM; in experiment [9] it was 1.9 µM; in experiment [10], 4.95 µM. The TGI was > 100 µM in experiment [1]; > 100 µM in experiment [2]; 68.3 µM in experiment [3]; > 100 µM in experiment [4]; 0.869 µM in experiment [5]; > 100 µM in experiment [6]. Besides, the TGI in experiment [7] was 7.15 µM; in [8], > 100 µM; in experiment [9], > 100 µM; in experiment [10] it was > 100 µM.
`O=C(Nc1cccc(C(F)(F)F)c1)c1cccc(NC2=C(Cl)C(=O)N(Cc3ccccc3)C2=O)c1`: the GI50 in [1] was 36.8 µM; in [2], 5.1 µM; in experiment [3], 3.1 µM; in experiment [4] it was 52.2 µM; in experiment [5] it was 1.89 µM; in experiment [6] it was 1.92 µM. For the same compound, the GI50 in experiment [7] is 32.3 µM; in experiment [8], 13.5 µM; in [9] it was 12.1 µM; in experiment [10] it was 57.3 µM. The TGI is > 100 µM in [1]; > 100 µM in experiment [2]; 14.3 µM in experiment [3]; > 100 µM in experiment [4]; 6.51 µM in experiment [5]; 18.3 µM in [6]. Further, the TGI in experiment [7] was > 100 µM; in experiment [8], 39.2 µM; in experiment [9] it was 29.9 µM; in experiment [10], > 100 µM.
Regarding `Oc1ccc(/C=N/Nc2nc3ccccc3s2)c(O)c1`, the GI50 was 2.8 µM in [1]; 0.734 µM in experiment [2]; 4 µM in experiment [3]; 0.381 µM in experiment [4]; 2.55 µM in experiment [5]; 0.904 µM in [6]. Further, the GI50 in experiment [7] was 3.11 µM; in experiment [8] it was 2.78 µM; in experiment [9], 1.75 µM; in [10] it was 1.51 µM. The TGI in experiment [1] was > 100 µM; in [2] it was 20.6 µM; in experiment [3] it was > 100 µM; in [4], 2.93 µM; in experiment [5], > 100 µM; in experiment [6], 10.8 µM. For the same compound, the TGI came to 21.3 µM in experiment [7], 17.2 µM in experiment [8], 4.82 µM in [9] and 9.96 µM in [10].
Regarding `CN(C)CCOc1nc2c3cccnc3cc(-c3cccc(Cl)c3)c2c2ncccc12`, the GI50 in [1] was 1.6 µM; in [2] it was 1.05 µM; in [3], 2.17 µM; in [4] it was 1.3 µM; in [5], 2.34 µM; in experiment [6] it was 0.905 µM. The GI50 was 1.23 µM in [7], 1.06 µM in experiment [8], 2.15 µM in [9] and 1.23 µM in [10]. Moreover, the TGI turned out to be 4.32 µM in experiment [1]; 2.7 µM in experiment [2]; 5.95 µM in [3]; 3.19 µM in experiment [4]; 6.24 µM in [5]; 3.2 µM in experiment [6]. Also, the TGI amounted to 2.74 µM in [7], 2.32 µM in experiment [8], 4.91 µM in experiment [9] and 7.78 µM in experiment [10].
As to `CCCC(=O)NC(c1ccc2c(c1)OCO2)c1ccc2cccnc2c1O` (stereo not given), the GI50 in [1] is 2.28 µM; in [2], 0.394 µM; in [3], 0.729 µM; in [4] it was 0.375 µM; in experiment [5], 1.03 µM; in experiment [6] it was 0.888 µM. Moreover, the GI50 in experiment [7] was 2.73 µM; in experiment [8] it was 0.387 µM; in experiment [9] it was 1.3 µM; in [10] it was 2.18 µM. The TGI in experiment [1] is > 100 µM; in experiment [2], 24.6 µM; in [3], > 100 µM; in experiment [4], 6.02 µM; in experiment [5] it was 27.8 µM; in experiment [6], > 100 µM. The TGI in experiment [7] was > 100 µM; in experiment [8] it was 56.1 µM; in experiment [9] it was 7.3 µM; in experiment [10] it was 73 µM.
Consider `CS(=O)c1ccc(-c2nc(-c3ccc(F)cc3)c(-c3ccncc3)[nH]2)cc1` (stereo not given), for which the GI50 is > 77.3 µM in [1]; 30.2 µM in [2]; 35.6 µM in experiment [3]; 39.7 µM in experiment [4]; 26.2 µM in experiment [5]; 21.9 µM in [6]. The GI50 in experiment [7] is 14.7 µM; in experiment [8] it was 20.1 µM; in [9], 9.09 µM; in [10], > 44.6 µM. Besides, the TGI in experiment [1] was > 100 µM; in experiment [2] it was > 100 µM; in experiment [3] it was > 89.4 µM; in experiment [4], > 100 µM; in experiment [5], 83.6 µM; in experiment [6], > 85.5 µM. Moreover, the TGI in experiment [7] is 50.2 µM; in experiment [8] it was > 63.8 µM; in experiment [9], > 66 µM; in experiment [10] it was > 100 µM.
As to `O=C(O)c1ccc(-c2ccc(C(=O)O)cc2I)c(I)c1`, the GI50 in experiment [1], in experiment [2], in experiment [3], in experiment [4], in [5] and in experiment [6] was > 100 µM throughout. Further, the GI50 in [7], in experiment [8], in [9] and in experiment [10] was > 100 µM throughout. Further, the TGI in experiment [1], in [2], in [3], in [4], in experiment [5] and in experiment [6] was > 100 µM throughout. Further, the TGI in experiment [7], in [8], in experiment [9] and in experiment [10] was > 100 µM throughout.
For `COc1ccc(/C(Cl)=C(\C=O)c2ccc(OC)c(OC)c2)cc1OC`, the TGI in [1], in experiment [2], in [3], in experiment [4], in experiment [5] and in [6] was > 100 µM in each case. The TGI was > 100 µM in experiment [7], > 100 µM in [8], > 100 µM in experiment [9] and 41 µM in experiment [10].
Consider `O=[N+]([O-])c1cc(Cl)cc2c1nc(NCCO)c1ccccc12`, for which the TGI in [1] is > 100 µM; in experiment [2], > 100 µM; in experiment [3], > 70.4 µM; in experiment [4] it was > 100 µM; in experiment [5], > 100 µM; in experiment [6], > 100 µM. In addition, the TGI in experiment [7] is 0.236 µM; in experiment [8], > 100 µM; in [9], > 60 µM; in experiment [10] it was > 81.7 µM.
In the case of `CCCCN(CCCC)CC(C)(C)C(O)c1ccc(OC)c2ccccc12` (stereo not given), the GI50 in [1] was 10.6 µM; in [2] it was 3.88 µM; in [3], 2.88 µM; in [4], 0.385 µM; in experiment [5], 2.5 µM; in experiment [6], 1.69 µM. The GI50 in experiment [7] is 3.1 µM; in experiment [8], 1.08 µM; in experiment [9], 4.87 µM; in [10], 6.31 µM. Moreover, the TGI turned out to be 28.6 µM in experiment [1]; 16.5 µM in experiment [2]; 13.7 µM in experiment [3]; 23.5 µM in [4]; 5.93 µM in experiment [5]; 14.1 µM in [6]. Also, the TGI in [7] is 15.8 µM; in [8], 10.8 µM; in [9], 21.3 µM; in [10], 30.3 µM.
With `CCCCCCNC(=O)Oc1ccc(/C(=C(\C)c2ccccc2)c2ccc(OCCN3CCCCC3)cc2)cc1`, the GI50 in experiment [1] is 4.69 µM; in experiment [2], 1.53 µM; in [3] it was 2.58 µM; in [4], 3.04 µM; in experiment [5] it was 2.38 µM; in experiment [6], 3.01 µM. For the same compound, the GI50 in experiment [7] is 1.78 µM; in [8] it was 1.49 µM; in experiment [9], 3.63 µM; in experiment [10], 2.01 µM. Further, the TGI in experiment [1] worked out at 18.2 µM; in experiment [2], 3.52 µM; in [3], 11.5 µM; in experiment [4], 10.7 µM; in [5] it was 5.57 µM; in experiment [6], 8.85 µM. In addition, the TGI in [7] was determined as 3.57 µM; in experiment [8] it was 2.89 µM; in [9], 12.5 µM; in experiment [10], 10.1 µM.
For the compound `C=C1C(=O)O[C@H]2[C@H]1[C@H](OC(=O)/C(C)=C\C)C[C@]1(CO1)[C@@H]1[C@H](OC(C)=O)C=C(C)[C@]21O`, the TGI was > 100 µM in experiment [1]; 33.5 µM in experiment [2]; > 58.8 µM in experiment [3]; > 100 µM in experiment [4]; 15.2 µM in experiment [5]; 38.8 µM in [6]. In addition, the TGI in experiment [7] was 19.4 µM; in experiment [8], 20.3 µM; in experiment [9], 32.2 µM; in [10] it was > 100 µM.
Consider `Cc1ccccc1-n1c(/C=C\c2ccccn2)nc2ccccc2c1=O`, for which the GI50 in experiment [1] is 32.1 µM; in experiment [2], 7.39 µM; in [3], 6.41 µM; in [4], 18.1 µM; in experiment [5], 2.51 µM; in experiment [6], 13.2 µM. In addition, the GI50 in experiment [7] is 9.65 µM; in experiment [8], 6.87 µM; in experiment [9], 14.2 µM; in experiment [10], 16.9 µM. For the same compound, the TGI is > 100 µM in experiment [1]; 37.2 µM in experiment [2]; 65.4 µM in experiment [3]; > 100 µM in experiment [4]; 15 µM in experiment [5]; 63.9 µM in [6]. For the same compound, the TGI in experiment [7] was 28.5 µM; in experiment [8], 22 µM; in experiment [9], 45 µM; in [10] it was > 100 µM.
Consider `CC1CCCN(CC(O)CN2CCCc3ccccc32)C1` (stereo not given), for which the TGI in experiment [1], in experiment [2], in [3], in [4], in [5] and in [6] was > 100 µM throughout. Besides, the TGI in experiment [7], in experiment [8], in [9] and in [10] was > 100 µM throughout.
For the compound `BrC(Br)(Br)c1cnc2ccccc2n1`, the GI50 was 3.33 µM in experiment [1]; 2.03 µM in experiment [2]; 2.44 µM in experiment [3]; 1.46 µM in [4]; 2.18 µM in experiment [5]; 2.2 µM in [6]. The GI50 in [7] is 0.735 µM; in [8] it was 1.1 µM; in experiment [9], 2.02 µM; in experiment [10], 2.94 µM. Besides, the TGI amounted to 16.1 µM in experiment [1]; 6.2 µM in experiment [2]; 9.89 µM in experiment [3]; 3.98 µM in experiment [4]; 6.02 µM in experiment [5]; 6.8 µM in [6]. Besides, the TGI is 2.13 µM in experiment [7], 2.66 µM in [8], 6.6 µM in [9] and 13.2 µM in experiment [10].
`O=C1/C(=C/c2ccc([N+](=O)[O-])s2)Oc2ccccc21`: the GI50 in [1] was 1.26 µM; in experiment [2], 0.246 µM; in experiment [3], 0.387 µM; in experiment [4] it was 0.538 µM; in [5], 0.379 µM; in [6], 0.839 µM. The GI50 was 1.26 µM in experiment [7], 0.267 µM in experiment [8], 0.667 µM in experiment [9] and 1.03 µM in [10]. Besides, the TGI is 2.79 µM in experiment [1]; 0.688 µM in [2]; 2.26 µM in [3]; 2.8 µM in [4]; 3.57 µM in experiment [5]; 2.45 µM in experiment [6]. Besides, the TGI came out at 2.66 µM in experiment [7], 0.791 µM in experiment [8], 1.94 µM in experiment [9] and 5.98 µM in experiment [10].

Values taken from PubChem BioAssay (NCI).
